According to patent publication US8598157B2, “5-alkynyl-pyridines” (Boehringer Ingelheim International GmbH, priority 2011, dated 2013):
pEC50, pIC50: −log10 of the molar value.

Columns and labels:
[1] = tested on: MCF7 cells; experiment: alamarBlue MCF7 cell assay (antiproliferative/cytotoxicity); assay type: cell-based; conditions: MCF7 human breast cancer cell line
Summary of the method: (§1)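 Cells plated overnight, then exposed to compounds from 10 μM in 1:3 steps (10 dilutions, duplicates) for 5–6 days at 37 °C. alamarBlue added for 8 h; fluorescence at ex 530–560/em 590 nm, medium blank subtracted, EC50 versus untreated cells.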

[2] = tested on: BT474 cells; experiment: alamarBlue BT474 cell assay (antiproliferative/cytotoxicity); assay type: cell-based; conditions: BT-474 human breast cancer cell line
Summary of the method: as §1

[3] = tested on: H460 cells; experiment: alamarBlue H460 cell assay (antiproliferative/cytotoxicity); assay type: cell-based; conditions: NCI-H460; H460 human lung carcinoma cells
Summary of the method: as §1

[4] = target: PI3Kalpha (Homo sapiens (Human), UniProt P42336); experiment: Inhibition of PI3Kalpha-induced PIP-2 phosphorylation (filter-binding assay); assay type: biochemical; conditions: 33P-ATP, p85alpha/His-p110alpha, read-out: IC50 PI3Kα
Sequence of PI3Kalpha (P42336 whole entry): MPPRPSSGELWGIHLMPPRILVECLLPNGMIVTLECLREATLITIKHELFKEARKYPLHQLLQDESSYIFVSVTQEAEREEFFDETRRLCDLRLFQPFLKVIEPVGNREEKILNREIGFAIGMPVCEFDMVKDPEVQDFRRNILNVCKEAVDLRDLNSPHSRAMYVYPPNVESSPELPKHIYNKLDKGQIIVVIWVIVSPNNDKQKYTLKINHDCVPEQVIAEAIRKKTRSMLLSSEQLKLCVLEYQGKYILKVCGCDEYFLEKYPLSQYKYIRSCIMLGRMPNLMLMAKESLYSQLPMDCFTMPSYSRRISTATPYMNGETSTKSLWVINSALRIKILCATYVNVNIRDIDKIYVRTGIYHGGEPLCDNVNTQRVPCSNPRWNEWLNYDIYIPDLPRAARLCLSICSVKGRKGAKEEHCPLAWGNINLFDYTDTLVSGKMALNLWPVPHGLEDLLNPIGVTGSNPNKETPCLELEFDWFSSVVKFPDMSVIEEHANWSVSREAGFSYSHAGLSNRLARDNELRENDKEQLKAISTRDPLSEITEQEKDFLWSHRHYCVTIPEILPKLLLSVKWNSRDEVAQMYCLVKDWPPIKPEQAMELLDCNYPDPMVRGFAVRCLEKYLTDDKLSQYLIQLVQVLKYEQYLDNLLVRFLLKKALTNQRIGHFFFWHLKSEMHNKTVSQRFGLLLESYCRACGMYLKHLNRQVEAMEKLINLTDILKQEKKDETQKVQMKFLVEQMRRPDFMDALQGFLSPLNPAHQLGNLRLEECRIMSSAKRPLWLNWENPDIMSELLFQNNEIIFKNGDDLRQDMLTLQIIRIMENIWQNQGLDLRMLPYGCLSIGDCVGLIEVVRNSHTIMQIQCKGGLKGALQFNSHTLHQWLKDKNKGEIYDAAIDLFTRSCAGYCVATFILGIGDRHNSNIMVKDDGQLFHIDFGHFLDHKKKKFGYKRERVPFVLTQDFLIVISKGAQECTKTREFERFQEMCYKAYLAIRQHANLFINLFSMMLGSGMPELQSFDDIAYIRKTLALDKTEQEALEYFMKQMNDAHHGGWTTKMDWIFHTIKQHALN
Summary of the method: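 Radiometric filter-binding assay: PI3Kα (25 ng/well) preincubated 20 min at room temperature with compound and PIP2-containing lipid vesicles plus phosphotyrosine PDGFRβ peptide. Reaction started with cold ATP (1 μM final) and [33P]-ATP and run 120 min at room temperature; filter-captured radioactivity counted, IC50 from duplicate dilution series.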

[5] = tested on: MB453 cells; experiment: alamarBlue MB453 cell assay (antiproliferative/cytotoxicity); assay type: cell-based; conditions: Homo sapiens; MDA MB 453 breast cancer cell line
Summary of the method: as §1

[6] = tested on: U87 cells; experiment: U87 cell assay (antiproliferative/cytotoxicity); assay type: cell-based; conditions: U-87MG human glioblastoma cells
Summary of the method: as §1

Structure (SMILES) | pIC50 [4] | pEC50 [1] | pEC50 [2] | pEC50 [3] | pEC50 [5] | pEC50 [6]
Cc1ncc(C#Cc2c(C)ncnc2N2CCCCC2)cc1NS(=O)(=O)c1ccccc1 [Example I-63, N-[2-Methyl-5-(4-methyl-6-piperidin-1-yl-pyrimidin-5-ylethynyl)-pyridin-3-yl]-benzenesulfonamide] | 8.52 | 6.90 | 5.36 | 6.51 | 5.88 | 5.89
Cc1ncc(C#Cc2c(C)ncnc2N2CCOCC2)cc1NS(=O)(=O)N1CCCC1 [Example I-64, Pyrrolidine-1-sulfonic acid [2-methyl-5-(4-methyl-6-morpholin-4-yl-pyrimidin-5-ylethynyl)-pyridin-3-yl]-amide] | 8.70 | 7.23 | 5.23 | 7.15 | 6.23 | 6.11
CCc1ncnc(N2CCN(C)CC2)c1C#Cc1cnc(C)c(NS(=O)(=O)c2ccc(F)cc2)c1 [Example I-65, N-{5-[4-Ethyl-6-(4-methyl-piperazin-1-yl)-pyrimidin-5-ylethynyl]-2-methyl-pyridin-3-yl}-4-fluoro-benzenesulfonamide] | 9.05 | 7.55 | 6.55 | 6.77 | 6.64 | 6.28
CCc1ncnc(N2CCC(O)CC2)c1C#Cc1cnc(C)c(NS(=O)(=O)c2ccc(F)cc2)c1 [Example I-66, N-{5-[4-Ethyl-6-(4-hydroxy-piperidin-1-yl)-pyrimidin-5-ylethynyl]-2-methyl-pyridin-3-yl}-4-fluoro-benzenesulfonamide] | 9.32 | 6.84 | 7.04 | 6.35 | 6.76 | 6.27

Now from value to compound, other results behind:

pIC50 [4] | Structure (SMILES) | pEC50 [1] | pEC50 [2] | pEC50 [3] | pEC50 [5] | pEC50 [6]
8.52 | CC(=O)N1CCCN(c2ncnc(C)c2C#Cc2cnc(C)c(NS(=O)(=O)c3ccccc3)c2)CC1 [Example I-62, N-{5-[4-(4-Acetyl-[1,4]diazepan-1-yl)-6-methyl-pyrimidin-5-ylethynyl]-2-methyl-pyridin-3-yl}-benzenesulfonamide] | 6.15 | 5.39 | 5.76 | 6.01 | 5.89
9.85 | CCc1ncnc(N2CCN(S(C)(=O)=O)CC2)c1C#Cc1cnc(C)c(NS(=O)(=O)c2ccc(F)cc2)c1 [Example I-67, N-{5-[4-Ethyl-6-(4-methanesulfonyl-piperazin-l-yl)-pyrimidin-5-ylethynyl]-2-methyl-pyridin-3-yl}-4-fluoro-benzenesulfonamide] | 8.05 | 7.36 | 7.43 | 7.27 | 6.33
9.33 | CCc1ncnc(N2CCN(C(C)=O)CC2)c1C#Cc1cnc(C)c(NS(=O)(=O)c2ccc(F)cc2)c1 [Example I-68, N-{5-[4-(4-Acetyl-piperazin-1-yl)-6-ethyl-pyrimidin-5-ylethynyl]-2-methyl-pyridin-3-yl}-4-fluoro-benzenesulfonamide] | 7.44 | 6.93 | 6.27 | 6.94 | 6.26
